Data: paper PMC10739630, “Galidesivir Triphosphate Promotes Stalling of Dengue-2 Virus Polymerase Immediately Prior to Incorporation” (ACS Infectious Diseases, 2023)

Assays:
Format in all cases: biochemical
[1] = biological target: T1, DENV2 NS5 (Dengue virus 2 Thailand/16681/84, UniProt P29990); assay: SYTO […] fluorescence RdRp assay, A2-primed, poly(U) template; settings: read-out: IC50 ^a (μM, mean ± std. dev.)
[2] = biological target: ZIKV NS5 (Zika virus, UniProt Q32ZE1); assay: as above; settings: read-out: IC50 ^a (μM, mean ± std. dev.)
[3] = biological target: T1, DENV2 NS5; settings: read-out: KM^app for ATP

T1 sequence (P29990 2492-3391 limits assumed): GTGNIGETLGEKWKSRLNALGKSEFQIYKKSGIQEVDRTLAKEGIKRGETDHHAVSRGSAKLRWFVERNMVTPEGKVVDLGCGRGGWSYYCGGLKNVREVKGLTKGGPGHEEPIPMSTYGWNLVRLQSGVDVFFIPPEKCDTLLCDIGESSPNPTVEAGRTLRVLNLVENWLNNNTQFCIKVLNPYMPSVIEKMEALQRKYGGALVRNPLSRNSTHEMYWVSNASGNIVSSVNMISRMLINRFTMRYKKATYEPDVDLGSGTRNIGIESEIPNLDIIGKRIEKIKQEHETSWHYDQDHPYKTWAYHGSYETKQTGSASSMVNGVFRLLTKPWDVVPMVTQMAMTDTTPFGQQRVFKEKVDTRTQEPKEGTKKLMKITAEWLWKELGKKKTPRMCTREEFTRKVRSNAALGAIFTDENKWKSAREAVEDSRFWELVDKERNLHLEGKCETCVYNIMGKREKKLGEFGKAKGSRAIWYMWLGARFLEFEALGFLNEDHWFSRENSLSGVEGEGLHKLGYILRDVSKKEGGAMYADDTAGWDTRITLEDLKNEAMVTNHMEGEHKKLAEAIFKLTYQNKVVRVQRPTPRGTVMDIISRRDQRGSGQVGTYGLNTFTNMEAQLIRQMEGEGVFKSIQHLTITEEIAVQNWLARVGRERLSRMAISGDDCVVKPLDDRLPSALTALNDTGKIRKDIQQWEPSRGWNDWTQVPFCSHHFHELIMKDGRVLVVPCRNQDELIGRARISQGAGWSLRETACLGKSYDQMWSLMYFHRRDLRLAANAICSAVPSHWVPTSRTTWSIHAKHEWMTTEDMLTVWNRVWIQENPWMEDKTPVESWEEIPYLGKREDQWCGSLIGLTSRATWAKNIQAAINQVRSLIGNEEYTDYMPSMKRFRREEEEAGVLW
Chain of ZIKV NS5 (Q32ZE1 2517-3419): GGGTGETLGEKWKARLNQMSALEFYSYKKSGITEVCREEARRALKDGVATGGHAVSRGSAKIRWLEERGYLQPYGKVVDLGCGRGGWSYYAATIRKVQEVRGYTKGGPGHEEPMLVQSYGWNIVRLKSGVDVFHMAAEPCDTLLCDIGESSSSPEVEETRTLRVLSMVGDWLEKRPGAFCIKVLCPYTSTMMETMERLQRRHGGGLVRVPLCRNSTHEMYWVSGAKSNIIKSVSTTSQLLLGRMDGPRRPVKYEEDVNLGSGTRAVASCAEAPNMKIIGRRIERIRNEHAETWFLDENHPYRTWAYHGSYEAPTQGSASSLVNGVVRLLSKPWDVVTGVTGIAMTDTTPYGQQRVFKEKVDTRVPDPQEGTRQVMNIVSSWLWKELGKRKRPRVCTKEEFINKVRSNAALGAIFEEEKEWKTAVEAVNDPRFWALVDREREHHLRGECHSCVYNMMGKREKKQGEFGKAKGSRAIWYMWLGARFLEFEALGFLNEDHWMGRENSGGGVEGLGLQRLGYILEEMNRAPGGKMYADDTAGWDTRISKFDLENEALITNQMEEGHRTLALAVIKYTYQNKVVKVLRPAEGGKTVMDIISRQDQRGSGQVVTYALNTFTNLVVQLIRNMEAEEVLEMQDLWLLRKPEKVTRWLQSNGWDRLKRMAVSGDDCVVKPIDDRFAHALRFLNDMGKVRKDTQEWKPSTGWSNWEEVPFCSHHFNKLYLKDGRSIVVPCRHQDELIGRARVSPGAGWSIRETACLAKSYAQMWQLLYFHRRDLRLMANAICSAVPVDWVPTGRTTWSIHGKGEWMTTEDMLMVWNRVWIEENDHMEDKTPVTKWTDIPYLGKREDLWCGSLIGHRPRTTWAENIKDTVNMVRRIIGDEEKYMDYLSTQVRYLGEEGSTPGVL

Compound | IC50 [1] [µM] | IC50 [2] [µM] | Km [3] [µM]
Nc1ncnc2c1ncn2[C@@H]1O[C@H](COP(=O)(O)OP(=O)(O)OP(=O)(O)O)C[C@H]1O [3′-dATP, reference compound] | 0.48 ± 0.05 | 0.06 ± 0.02 | 
Nc1ncnc2c1ncn2[C@@H]1O[C@H](COP(=O)(O)OP(=O)(O)OP(=O)(O)O)[C@@H](O)[C@H]1O [ATP] |  |  | 430
Nc1ncnc2c([C@@H]3N[C@H](COP(=O)(O)OP(=O)(O)OP(=O)(O)O)[C@@H](O)[C@H]3O)c[nH]c12 [Gal-TP] | 42 ± 12 | 47 ± 5 | 
